Where two headings read alike, the source gives them in different places.
Experiments:
[1] = tested on: α-smooth muscle actin (aSMA) positive LL29 cells; assay: Inhibition of the fibrotic process: αSMA staining in TGF-β1 treated LL29 fibroblasts from IPF patients; conditions: Homo sapiens, Fibroblast; for EC50: 96 h; for inhibition at 10 µM: read-out: percentage in parentheses after EC50 >10
[2] = tested on: SW480 colon carcinoma cells; assay: Cell viability assay (CellTiter-Glo); conditions: Homo sapiens; for EC50: SW480, 96 h; for inhibition at 10 µM: SW480, read-out: percent inhibition at 10 μM
[3] = target: GSK3β kinase (Homo sapiens, UniProt P49841); assay: GSK3β kinase activity (Ser/Thr 09 peptide Z-lyte FRET assay); format: biochemical; conditions: recombinant kinase, 46 μM ATP, one hour at room temperature; read-out: EC50
GSK3β kinase, sequence (P49841 whole entry): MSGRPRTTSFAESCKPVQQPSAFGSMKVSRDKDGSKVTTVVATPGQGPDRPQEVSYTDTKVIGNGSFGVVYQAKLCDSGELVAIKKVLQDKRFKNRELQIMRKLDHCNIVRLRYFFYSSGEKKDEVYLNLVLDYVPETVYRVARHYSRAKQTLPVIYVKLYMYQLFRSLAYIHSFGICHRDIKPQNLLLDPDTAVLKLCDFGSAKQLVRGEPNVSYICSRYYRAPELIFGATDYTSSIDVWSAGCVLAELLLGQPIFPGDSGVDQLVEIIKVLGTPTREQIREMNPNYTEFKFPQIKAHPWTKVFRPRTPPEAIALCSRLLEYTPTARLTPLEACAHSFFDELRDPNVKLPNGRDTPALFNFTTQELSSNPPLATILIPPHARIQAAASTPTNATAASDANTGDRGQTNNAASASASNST

[4] = tested on: Wnt-responsive Sp5-Luc reporter in SW480 colon carcinoma cells; assay: Screening assay for Wnt activity (Sp5-Luc reporter gene assay); conditions: Homo sapiens; for EC50: SW480; for inhibition at 10 µM: SW480, read-out: percent inhibition at 10 μM
[5] = tested on: Tau phosphorylation at Ser396 (pSer396); assay: Tau phosphorylation at Ser396 (pSer396) in SH-SY5Y cells, ELISA / western blot; format: cell-based, human; conditions: Homo sapiens;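 also: decrease in pSer396 Tau measured in lysates of treated cells by colorimetric ELISA or chemiluminescent western blot, same pSer396 antibody for both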
Protocol: Two days before treatment, cells were seeded onto 96 well plates at 5×10^4 cells/well.
The above synthesized compounds were screened using the cell assay procedure to assess decrease Tau phosphorylation at Ser396 (pSer396) described below.
Cells were lysed with RIPA buffer complemented with phosphatase and protease inhibitors then lysates were spun down at 12,000 g for 10 min to remove any cellular debris.

[6] = target: DYRK1A kinase (Homo sapiens, UniProt Q13627); assay: DYRK1A kinase activity (Ser/Thr 18 peptide Z-lyte FRET assay); format: biochemical; conditions: recombinant DYRK1A, 30 μM ATP, one hour at room temperature;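 also: kinase activity read as coumarin/fluorescein emission ratio after development step, with unphosphorylated and phosphorylated peptide forms setting 0% and 100% controls, values from dose-response curves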
[7] = tested on: IL-6; assay: IL-6 inhibition in LPS-stimulated human peripheral blood mononuclear cells (HTRF); conditions: Homo sapiens, PBMC; for EC50: 22 h; for inhibition at 10 µM: read-out: percentage in parentheses after EC50 >10
Protocol: Each compound was dissolved in DMSO (Catalog # D8418-100 ml, Sigma-Aldrich, St. Louis, Mo.) as a 10 mM stock and used to prepare compound source plates. […] After 22 hour incubation, a mixture of anti-IL6 XL665 and anti-IL-6 Cryptate diluted in reconstitution buffer (Catalog #62IL6PEC, Cisbio Inc., Bedford, Mass.) was added to each well. […] All samples were processed in duplicate. […] EC50 was determined using software generated by Dotmatics Limited (Windhill Bishops Stortford Herts, UK) using the Levenberg-Marquardt 4 parameter fitting procedure with finite different gradients.

[8] = tested on: secreted cytokines TNFα, IL-6 and KC-GRO; assay: Secreted cytokines in Lipopolysaccharide-stimulated BV-2 cells (Table 9 does not say which cytokine); format: cell-based, mouse; conditions: Mus musculus, BV-2, 5 h; read-out: EC50

EC50 [2]	EC50 [3]	EC50 [4]	EC50 ([5]; SH-SY5Y cells, overnight (16-18 h), read-out: pSer396 Tau EC50)	EC50 [6]	EC50 [7]	EC50 [8]	Structure (SMILES)	EC50 [1]	inhibition at 10 µM [1]	inhibition at 10 µM [2]	inhibition at 10 µM [7]	inhibition at 10 µM [4]	EC50 ([5]; SH-SY5Y, read-out: EC50 in the Tau assay)
> 10000 nM	560 nM	189 nM	1500 nM	364 nM	> 10000 nM	–	COC1CCN(CC(=O)Nc2cc3nc(-c4cn(C)nn4)ccc3cn2)CC1 [Compound 358, 2-(4-Methoxypiperidin-1-yl)-N-(2-(1-methyl-1H-1,2,3-triazol-4-yl)-1,6-naphthyridin-7-yl)acetamide]	> 10000 nM	9.8%	38%	2%	–	–
933 nM	1060 nM	824 nM	–	5 nM	> 10000 nM	343 nM	CC(C)OC(=O)N1CCC(n2cc(C(=O)Nc3cc4cc(-c5cnn(C)c5)ncc4cn3)cn2)CC1 [Compound 3861, Isopropyl 4-(4-((6-(1-methyl-1H-pyrazol-4-yl)-2,7-naphthyridin-3-yl)carbamoyl)-1H-pyrazol-1-yl)piperidine-1-carboxylate]	597 nM	–	–	5.8%	–	–
2310 nM	416 nM	2690 nM	–	7 nM	> 10000 nM	300 nM	Cc1ncc(C(=O)Nc2cc3cc(-c4cnc(C)n4C)ncc3cn2)s1 [Compound 4074, N-(6-(1,2-Dimethyl-1H-imidazol-5-yl)-2,7-naphthyridin-3-yl)-2-methylthiazole-5-carboxamide]	3190 nM	–	–	14%	–	–
> 10000 nM	966 nM	5600 nM	–	8 nM	> 10000 nM	≥ 10000 nM	Cn1cncc1-c1cc2cc(NC(=O)c3ccc(F)cc3)ncc2cn1 [Compound 4075, 4-Fluoro-N-(6-(1-methyl-1H-imidazol-5-yl)-2,7-naphthyridin-3-yl) benzamide]	> 10000 nM	39.2%	35.4%	8.1%	–	–
2780 nM	2280 nM	200 nM	–	7 nM	> 10000 nM	2400 nM	Cn1cncc1-c1cc2cc(NC(=O)c3cccc(CN4CCCC4)c3)ncc2cn1 [Compound 4077, N-(6-(1-Methyl-1H-imidazol-5-yl)-2,7-naphthyridin-3-yl)-3-(pyrrolidin-1-ylmethyl)benzamide]	1020 nM	–	–	3.6%	–	–
5960 nM	7400 nM	> 10000 nM	–	14 nM	> 10000 nM	5100 nM	CN1CCC(Oc2cccc(C(=O)Nc3cc4cc(-c5cnco5)ncc4cn3)c2)CC1 [Compound 4218, 3-((1-Methylpiperidin-4-yl)oxy)-N-(6-(oxazol-5-yl)-2,7-naphthyridin-3-yl) benzamide]	2980 nM	–	–	3.7%	24.9%	–
2460 nM	1620 nM	4060 nM	–	6 nM	> 10000 nM	626 nM	CN1CCN(c2cc(C(=O)Nc3cc4cc(-c5cncs5)ncc4cn3)ccn2)CC1 [Compound 4257, 2-(4-Methylpiperazin-1-yl)-N-(6-(thiazol-5-yl)-2,7-naphthyridin-3-yl) isonicotinamide]	2520 nM	–	–	5.3%	–	–
> 10000 nM	828 nM	> 10000 nM	–	48 nM	> 10000 nM	> 10000 nM	CO[C@H]1CC[C@H](C(=O)Nc2cc3cc(-c4nnc(C)s4)ncc3cn2)CC1 [Compound 4332, trans-4-Methoxy-N-(6-(5-methyl-1,3,4-thiadiazol-2-yl)-2,7-naphthyridin-3-yl)cyclohexane-1-carboxamide]	> 10000 nM	23.6%	16.5%	0%	9.6%	–
3150 nM	3780 nM	2820 nM	–	3 nM	> 10000 nM	40 nM	Nc1cncc(-c2cc3cc(NC(=O)c4ccc(OC5CCNCC5)cc4)ncc3cn2)c1 [Compound 4431, N-(6-(5-Aminopyridin-3-yl)-2,7-naphthyridin-3-yl)-4-(piperidin-4-yloxy) benzamide]	2490 nM	–	–	3.6%	–	–
5150 nM	> 10000 nM	8480 nM	–	12 nM	9850 nM	9500 nM	CN1CCN(c2cc(C(=O)Nc3cc4cc(-c5ccc(N)nc5)ncc4cn3)ccn2)CC1 [Compound 4434, N-(6-(6-Aminopyridin-3-yl)-2,7-naphthyridin-3-yl)-2-(4-methylpiperazin-1-yl)isonicotinamide]	1600 nM	–	–	–	–	–
513 nM	> 10000 nM	718 nM	–	10 nM	3260 nM	1300 nM	CN1CCC(n2cc(C(=O)Nc3cc4cc(-c5cncc6[nH]ccc56)ncc4cn3)cn2)CC1 [Compound 4523, N-(6-(1H-Pyrrolo[2,3-c]pyridin-4-yl)-2,7-naphthyridin-3-yl)-1-(1-methylpiperidin-4-yl)-1H-pyrazole-4-carboxamide]	2380 nM	–	–	–	–	–
952 nM	> 10000 nM	278 nM	–	3 nM	3430 nM	47 nM	CN1CCC(Nc2cc(C(=O)Nc3cc4nc(-c5cnn(C)c5)ccc4cn3)ccn2)CC1 [Compound 4538, N-(2-(1-Methyl-1H-pyrazol-4-yl)-1,6-naphthyridin-7-yl)-2-((1-methylpiperidin-4-yl)amino)isonicotinamide]	708 nM	–	–	–	–	–
782 nM	2230 nM	301 nM	–	2 nM	> 10000 nM	80 nM	CN1CCN(c2ncc(C(=O)Nc3cc4nc(-c5cnn(C)c5)ccc4cn3)s2)CC1 [Compound 4539, N-(2-(1-Methyl-1H-pyrazol-4-yl)-1,6-naphthyridin-7-yl)-2-(4-methylpiperazin-1-yl)thiazole-5-carboxamide]	1100 nM	–	–	37.4%	–	–
> 10000 nM	785 nM	> 10000 nM	–	19 nM	> 10000 nM	400 nM	O=C(Nc1cc2nc(-c3cnco3)ccc2cn1)[C@H]1CC[C@H](CO)CC1 [Compound 4548, trans-4-(Hydroxymethyl)-N-(2-(oxazol-5-yl)-1,6-naphthyridin-7-yl) cyclohexane-1-carboxamide]	> 10000 nM	50%	29.8%	3.2%	–	–
1040 nM	4240 nM	1020 nM	–	5 nM	2990 nM	400 nM	O=C(Nc1cc2nc(-c3cnco3)ccc2cn1)c1ccc(OC2CCNCC2)cc1 [Compound 4551, N-(2-(Oxazol-5-yl)-1,6-naphthyridin-7-yl)-4-(piperidin-4-yloxy)benzamide]	325 nM	–	–	–	–	–
5620 nM	2180 nM	3260 nM	–	3 nM	> 10000 nM	128 nM	CN1CCN(c2ncc(C(=O)Nc3ncc4ccc(-c5cnn(C)c5)cc4n3)s2)CC1 [Compound 4570, N-(7-(1-Methyl-1H-pyrazol-4-yl)quinazolin-2-yl)-2-(4-methylpiperazin-1-yl) thiazole-5-carboxamide]	> 10000 nM	5.5%	–	18.4%	–	–
> 10000 nM	34 nM	> 10000 nM	–	131 nM	> 10000 nM	2500 nM	Cc1nnc(-c2ccc3cnc(NC(=O)CN4C[C@@H]5C[C@H]4CO5)nc3c2)s1 [Compound 4593, 2-((1S,4S)-2-Oxa-5-azabicyclo[2.2.1]heptan-5-yl)-N-(7-(5-methyl-1,3,4-thiadiazol-2-yl)quinazolin-2-yl)acetamide]	> 10000 nM	41.4%	27.4%	4.8%	32.8%	–
2670 nM	7820 nM	3830 nM	–	27 nM	> 10000 nM	275 nM	Cc1cn2c(n1)CN(C(=O)Nc1cc3cc(-c4cnco4)cnc3cn1)CC2 [Compound 4615]	> 10000 nM	35.6%	–	5.8%	–	–
> 10000 nM	4630 nM	> 10000 nM	–	40 nM	> 10000 nM	1400 nM	Cc1ncc(-c2cnc3cnc(NC(=O)C4CCN(C5COC5)CC4)cc3c2)s1 [Compound 4622, N-(3-(2-methylthiazol-5-yl)-1,7-naphthyridin-6-yl)-1-(oxetan-3-yl)piperidine-4-carboxamide]	> 10000 nM	29.4%	27.9%	2.3%	50%	–
–	–	–	–	–	–	–	COc1ccc2c(c1)[nH]c1c(C)nccc12 [Harmine, reference compound]	–	–	–	–	–	> 10000 nM

Reference: patent US10703748B2, “Diazanaphthalen-3-yl carboxamides and preparation and use thereof” (Samumed, LLC, priority 2017, dated 2020)
